Target: T1, Pol-β (Homo sapiens, UniProt P06746)
T1 construct: gene POLB; purified protein
Test: strand-displacement synthesis on […]-labelled 63-mer F-DNA, denaturing gel
Format: biochemical
Conditions: pH 7.5, 30 mM KCl, 8 mM MgCl2, 37 °C, 30 min; 5 nM Pol-β, 2 nM APE1 (pre-incision), 2.5 nM DNA

“[5-(4-amino-6-iodo-2-oxo-5,6-dihydropyrimidin-1-yl)-3-hydroxy-oxolan-2-yl] methoxyphosphonic acid [NSC-124854]” gave an IC50 of 5.3 µM.

— PMC3032781, “DNA Polymerase β as a Novel Target for Chemotherapeutic Intervention of Colorectal Cancer” (PLoS ONE, 2011)
